How the values were obtained:
human P2X3 receptor = biological target: T1, human P2X3 receptor (Homo sapiens, UniProt P56373); assay: Inhibition of ATP-induced calcium fluorescence (Fluo-3, FDSS 3000) in C6BU-1 cells stably expressing human P2X3 receptor; assay type: cell-based; settings: C6BU-1 cell transfected with human P2X3 receptor gene; 40 nM ATP solution; Fluo-3 fluorescence intensity
T1 construct: expressed in transfected cells
T1 sequence (P56373 1-397): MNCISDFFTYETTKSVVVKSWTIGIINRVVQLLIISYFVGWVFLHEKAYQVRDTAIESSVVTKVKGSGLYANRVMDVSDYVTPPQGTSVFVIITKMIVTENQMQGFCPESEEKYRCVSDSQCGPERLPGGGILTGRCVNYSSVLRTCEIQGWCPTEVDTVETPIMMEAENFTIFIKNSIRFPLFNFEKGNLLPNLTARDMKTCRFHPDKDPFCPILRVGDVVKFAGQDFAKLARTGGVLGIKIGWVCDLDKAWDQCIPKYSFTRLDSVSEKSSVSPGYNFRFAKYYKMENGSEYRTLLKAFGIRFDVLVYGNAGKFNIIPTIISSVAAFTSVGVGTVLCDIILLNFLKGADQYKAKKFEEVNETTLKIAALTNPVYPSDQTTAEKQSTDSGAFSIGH
Description: Stably expressing cell line (C6BU-1 cell transfected with human P2X3 receptor gene (GenBank accession number Y07683)) was used. The cells were seeded in a 96-well microtiter plate at a concentration of 8000 cells/well and cultured in the medium (8.3% fetal bovine serum, 8.3% horse serum, 1% antibiotic and antifungal in DMEM) for one day at 37° C. under 5% carbon dioxide atmosphere. The medium was replaced with 4 μM Fluo-3-AM solution (pH7.5) containing 20 mM HEPES, 137 mM NaCl, 2.7 mM KCl, 0.9 mM MgCl2, 5.0 mM CaCl2, 5.6 mM D-glucose, 2.5 mM probenecid, 10% BSA, and 0.08% Pluronic F-127, and incubated at 37° C. under 5% dioxide carbon atmosphere for one hour. The plate was washed with washing buffer (20 mM HEPES, 137 mM NaCl, 2.7 mM KCl, 0.9 mM MgCl2, 5.0 mM CaCl2, 5.6 mM D-glucose, 2.5 mM probenecid, pH7.5), and each well was added with 40 μL of this buffer. The plate was placed in High-Throughput Screening System FDSS 3000 (Hamamatsu Photonics K.K.). Measurement of fluorescence intensity by FDSS 3000 was started, and 40 μL of DMSO solutions containing different concentrations of the test compound as prepared by dilution with dilution buffer (20 mM HEPES, 137 mM NaCl, 2.7 mM KCl, 0.9 mM MgCl2, 5.0 mM CaCl2, 5.6 mM D-glucose, 2.5 mM probenecid, 0.1% Pluronic F-127, pH7.5) were dispensed to each well through the built-in automatic dispenser. Five minutes after, 40 nM ATP solution (50 μL) prepared by dilution with the dilution buffer was dispensed through the built-in automatic dispenser, and the measurement of fluorescence intensity was continued for 3 min. For each well, the specific maximum fluorescence intensity was calculated as the ratio of the maximum fluorescence intensity after addition of the ATP solution to the fluorescence intensity at the starting of the measurement. […] FDSS software (Hamamatsu Photonics K.K.) was used for calculation of the specific maximum fluorescence intensity. IC50 was calculated using Microsoft™ Excel™ (Microsoft Corporation) and XLfit™ (ID Business Solutions Ltd.).

Row | IC50 (human P2X3 receptor) [nM] | melting point | Structure (SMILES)
1 | 10 | 252 to 255 °C | CCOC(=O)c1ccc(N2C(=O)C(=O)C(C(=O)c3ccc(OC)cc3)C2C2CCCCC2)cc1 (stereo not drawn) [Example I-2]
2 | 180 | 236 to 239 °C | COc1ccc(C(=O)C2=C(O)C(=O)N(c3ccc(-c4nc(C)no4)cc3)C2c2ccc(F)cc2)cc1 (stereo not drawn) [Example I-25]
3 | 580 | 225 to 228 °C (dec.) | COc1ccc(C(=O)C2=C(O)C(=O)N(c3ccc(SC(F)(F)F)cc3)C2c2ccc(F)cc2)cc1 (stereo not drawn) [Example I-45]
4 | 970 | 241 to 244 °C | COc1ccc(C(=O)C2=C(O)C(=O)N(c3ccc(OC(F)(F)F)cc3)C2c2ccc(F)cc2)cc1 (stereo not drawn) [Example I-48]
5 | 3780 | 189 to 192 °C | COc1ccc(C(=O)C2=C(O)C(=O)N(c3ccc(C4=NCCO4)cc3)C2c2ccc(F)cc2)cc1 (stereo not drawn) [Example I-69]
6 | 920 | 251 to 252 °C | CC(C)(C)c1n[nH]c2c1C(C1CCCCC1)N(c1ccc(-c3ccon3)cc1)C2=O (stereo not drawn) [Example I-96, 3-tert-butyl-4-cyclohexyl-5-(4-isoxazol-3-ylphenyl)-4,5-dihydro-1H-pyrrolo[3,4-c]pyrazol-6-one]
7 | 10 | – | CC(=O)Nc1ccc(C(=O)C2=C(O)C(=O)N(c3ccc(-c4ccon4)cc3)C2C2CCCCC2)cc1 (stereo not drawn) [II-201]
8 | 1620 | – | CC(=O)Nc1ccc(-c2n[nH]c3c2C(C2CCCCC2)N(c2ccc(-c4ccon4)cc2)C3=O)cc1 (stereo not drawn) [II-202]
9 | 1870 | – | COc1ccc(-c2n[nH]c3c2C(C2CC2)N(c2ccc(-c4ccon4)cc2)C3=O)cc1 (stereo not drawn) [II-217]

From patent US8497263B2, “Pyrrolinone derivative and pharmaceutical composition comprising the same” (Shionogi & Co., Ltd., priority 2007, dated 2013)
